# Source: US11292770B2, “Pyridazinone herbicides” (FMC Corporation, priority 2017, dated 2022)
# Columns and labels:
# Assay type in all cases: in vivo
# kochia (Kochia scoparia) [1] = assay: Test A preemergence, kochia; settings: 0 to 100 scale
# Source text: (§1) Seeds of plant species selected from barnyardgrass (Echinochloa crus-galli), kochia (Kochia scoparia), ragweed (common ragweed, Ambrosia elation), ryegrass, Italian (Italian ryegrass, Lolium multiflorum), foxtail, green (green foxtail, Setaria viridis), and pigweed (Amaranthus retroflexus) were planted into a blend of loam soil and sand and treated preemergence with a directed soil spray using test chemicals formulated in a non-phytotoxic solvent mixture which included a surfactant. At the same time, plants selected from these weed species and also wheat (Triticum aestivum), corn (Zea mays), blackgrass (Alopecurus myosuroides), and galium (catchweed bedstraw, Galium aparine) were planted in pots containing the same blend of loam soil and sand and treated with postemergence applications of test chemicals formulated in the same manner Plants ranged in height from 2 to 10 cm and were in the one- to two-leaf stage for the postemergence treatment. Treated plants and untreated controls were maintained in a greenhouse for approximately 10 d, after which time all treated plants were compared to untreated controls and visually evaluated for injury. Plant response ratings, summarized in Table A, are based on a 0 to 100 scale where 0 is no effect and 100 is complete control. A dash (—) response means no test result.
# Foxtail, Giant [2] = assay: Test A postemergence, foxtail, giant; settings: 0 to 100 scale
# [3] = system: ducksalad (Heteranthera limosa); assay: Test B flooded paddy test, ducksalad; settings: Flood, 250 g ai/ha; scale of 0 to 100
# Protocol: (§2) Plant species in the flooded paddy test selected from rice (Oryza sativa), sedge, umbrella (small-flower umbrella sedge, Cyperus difformis), ducksalad (Heteranthera limosa), and barnyardgrass (Echinochloa crus-galli) were grown to the 2-leaf stage for testing. At the time of treatment, test pots were flooded to 3 cm above the soil surface, treated by application of test compounds directly to the paddy water, and then maintained at that water depth for the duration of the test. Treated plants and controls were maintained in a greenhouse for 13 to 15 d, after which time all species were compared to controls and visually evaluated. Plant response ratings, summarized in Table B, are based on a scale of 0 to 100 where 0 is no effect and 100 is complete control. A dash (—) response means no test result.
# corn (Zea mays) = assay: Test A postemergence, corn; settings: 0 to 100 scale
# Source text: as §1
# [4] = system: pigweed (Amaranthus retroflexus); assay: Test A preemergence, pigweed; settings: 0 to 100 scale
# Source text: as §1
# [5] = system: pigweed (Amaranthus retroflexus); assay: Test A postemergence, pigweed; settings: 0 to 100 scale
# Source text: as §1
# [6] = system: wheat (Triticum aestivum); assay: Test A postemergence, wheat; settings: 0 to 100 scale
# Source text: as §1
# [7] = system: barnyardgrass (Echinochloa crus-galli); assay: Test A preemergence, barnyardgrass; settings: 0 to 100 scale
# Source text: as §1
# Foxtail, Giant [8] = assay: Test A preemergence, foxtail, giant; settings: 0 to 100 scale
# [9] = system: ryegrass, Italian (Italian ryegrass, Lolium multiflorum); assay: Test A preemergence, ryegrass, Italian; settings: 0 to 100 scale
# Source text: as §1
# [10] = system: barnyardgrass (Echinochloa crus-galli); assay: Test A postemergence, barnyardgrass; settings: 0 to 100 scale
# Source text: as §1
# [11] = system: ryegrass, Italian (Italian ryegrass, Lolium multiflorum); assay: Test A postemergence, ryegrass, Italian; settings: 0 to 100 scale
# Source text: as §1
# [12] = system: barnyardgrass (Echinochloa crus-galli); assay: Test B flooded paddy test, barnyardgrass; settings: Flood, 250 g ai/ha; scale of 0 to 100, 0 no effect, 100 complete control
# Protocol: as §2
# [13] = system: ragweed (common ragweed, Ambrosia elation); assay: Test A postemergence, ragweed; settings: 0 to 100 scale
# Source text: as §1
# rice (Oryza sativa) = assay: Test B flooded paddy test, rice; settings: Flood, 250 g ai/ha; scale of 0 to 100
# Protocol: as §2
# kochia (Kochia scoparia) [14] = assay: Test A postemergence, kochia; settings: 0 to 100 scale
# Source text: as §1
# [15] = system: galium (catchweed bedstraw, Galium aparine); assay: Test A postemergence, galium; settings: 0 to 100 scale
# Source text: as §1
# [16] = system: blackgrass (Alopecurus myosuroides); assay: Test A postemergence, blackgrass; settings: 0 to 100 scale
# Source text: as §1
# [17] = system: ragweed (common ragweed, Ambrosia elation); assay: Test A preemergence, ragweed; settings: 0 to 100 scale
# Source text: as §1
# [18] = system: sedge, umbrella (small-flower umbrella sedge, Cyperus difformis); assay: Test B flooded paddy test, sedge, umbrella; settings: Flood, 250 g ai/ha; scale of 0 to 100
# Protocol: as §2
# [19] = 125 g ai/ha, 0 no effect, 100 complete control
Structure (SMILES),"Plant response rating, Kochia (kochia (Kochia scoparia) [1]; 31 g ai/ha)","Plant response rating, Kochia (kochia (Kochia scoparia) [1]; 125 g ai/ha)","Plant response rating, Foxtail, Giant (Foxtail, Giant [2]; 31 g ai/ha)","Plant response rating, Foxtail, Giant (Foxtail, Giant [2]; 125 g ai/ha)","Plant response rating, Ducksalad [3]","Plant response rating, Corn (corn (Zea mays); 31 g ai/ha)","Plant response rating, Corn (corn (Zea mays); 125 g ai/ha)","Plant response rating, Pigweed ([4]; 31 g ai/ha)","Plant response rating, Pigweed ([4]; 125 g ai/ha)","Plant response rating, Pigweed ([5]; 31 g ai/ha)","Plant response rating, Pigweed ([5]; 125 g ai/ha)","Plant response rating, Wheat ([6]; 31 g ai/ha)","Plant response rating, Wheat ([6]; 125 g ai/ha)","Plant response rating, Barnyardgrass ([7]; 31 g ai/ha)","Plant response rating, Barnyardgrass ([7]; 125 g ai/ha)","Plant response rating, Foxtail, Giant (Foxtail, Giant [8]; 31 g ai/ha)","Plant response rating, Foxtail, Giant (Foxtail, Giant [8]; 125 g ai/ha)","Plant response rating, Ryegrass, Italian ([9]; 31 g ai/ha)","Plant response rating, Ryegrass, Italian ([9]; 125 g ai/ha)","Plant response rating, Barnyardgrass ([10]; 31 g ai/ha)",other results
Cc1nn(C)c(=O)c(-c2c3ccccc3cc3ccccc23)c1O [Compound 8],0,0,10,60,90,10,10,100,100,90,100,0,0,0,10,0,10,10,50,10,"Plant response rating, Barnyardgrass [10, 19]: 50; Plant response rating, Ryegrass, Italian ([11]; 31 g ai/ha): 90; Plant response rating, Ryegrass, Italian ([11]; 125 g ai/ha): 100; Plant response rating, Barnyardgrass [12]: 15; Plant response rating, Ragweed ([13]; 31 g ai/ha): 90; Plant response rating, Ragweed ([13]; 125 g ai/ha): 90; Plant response rating, Rice (rice (Oryza sativa)): 15; Plant response rating, Kochia (kochia (Kochia scoparia) [14]; 31 g ai/ha): 0; Plant response rating, Kochia (kochia (Kochia scoparia) [14]; 125 g ai/ha): 10; Plant response rating, Galium ([15]; 31 g ai/ha): 80; Plant response rating, Galium ([15]; 125 g ai/ha): 90; Plant response rating, Blackgrass ([16]; 31 g ai/ha): 0; Plant response rating, Blackgrass ([16]; 125 g ai/ha): 30; Plant response rating, Ragweed ([17]; 31 g ai/ha): 40; Plant response rating, Ragweed ([17]; 125 g ai/ha): 90; Plant response rating, Sedge, Umbrella [18]: 90"
CC(=O)Oc1c(Cl)nn(C)c(=O)c1-c1c2ccccc2cc2ccccc12 [Compound 6],0,0,0,20,85,0,0,80,100,100,100,10,10,0,0,0,10,30,30,0,"Plant response rating, Barnyardgrass [10, 19]: 10; Plant response rating, Ryegrass, Italian ([11]; 31 g ai/ha): 20; Plant response rating, Ryegrass, Italian ([11]; 125 g ai/ha): 70; Plant response rating, Barnyardgrass [12]: 0; Plant response rating, Ragweed ([13]; 31 g ai/ha): 90; Plant response rating, Ragweed ([13]; 125 g ai/ha): 90; Plant response rating, Rice (rice (Oryza sativa)): 0; Plant response rating, Kochia (kochia (Kochia scoparia) [14]; 31 g ai/ha): 0; Plant response rating, Kochia (kochia (Kochia scoparia) [14]; 125 g ai/ha): 20; Plant response rating, Galium ([15]; 31 g ai/ha): 80; Plant response rating, Galium ([15]; 125 g ai/ha): 100; Plant response rating, Blackgrass ([16]; 31 g ai/ha): 0; Plant response rating, Blackgrass ([16]; 125 g ai/ha): 0; Plant response rating, Ragweed ([17]; 31 g ai/ha): 40; Plant response rating, Ragweed ([17]; 125 g ai/ha): 100; Plant response rating, Sedge, Umbrella [18]: 95"
